From PubChem BioAssay AID1259407 (Chemical Carcinogenesis Research Information System (CCRIS), 2018)
The source made the active and inactive calls. How the calls were made is not given here.

Tested on: CCRIS mutagenicity, Ames/micronucleus/aberration tests
Test: CCRIS mutagenicity studies

Q: What does the source list for `COc1cccc2c1cc([N+](=O)[O-])c1c(C(=O)O)cc3c(c12)OCO3`?
A: mutagenic call (End Point: IN VITRO CHROMOSOMAL ABERRATIONS, Test System: CHO (WBL) CELLS, Metabolic Activation: NONE): active; positive; mutagenic call (End Point: IN VITRO CHROMOSOMAL ABERRATIONS, Test System: CHO (WBL) CELLS, Metabolic Activation: RAT, LIVER, S-9, AROCLOR 1254): active; positive; mutagenic call (End Point: IN VITRO CHROMOSOMAL ABERRATIONS, Test System: CHO CELLS, Metabolic Activation: NONE): active; positive; mutagenic call (End Point: IN VITRO CHROMOSOMAL ABERRATIONS, Test System: CHO CELLS, Metabolic Activation: S-9): active; positive; mutagenic call (End Point: IN VITRO MICRONUCLEUS, Test System: CHO (WBL) CELLS, Metabolic Activation: RAT, LIVER, S-9, AROCLOR 1254): active; positive; mutagenic call (End Point: IN VITRO MICRONUCLEUS, Test System: CHO CELLS, Metabolic Activation: S-9): active; positive; mutagenic call (End Point: In vitro micronucleus, Test System: Human hepatoma (HepG2) cells, Metabolic Activation: None): active; positive; mutagenic call (Test System: AMES SALMONELLA TYPHIMURIUM, Strain/Indicator: D3052, Metabolic Activation: NONE, Method: STANDARD PLATE): inactive; negative; mutagenic call (Test System: AMES SALMONELLA TYPHIMURIUM, Strain/Indicator: D3052, Metabolic Activation: RAT, LIVER, S-9, PHENOBARBITAL, Method: STANDARD PLATE): inactive; negative; mutagenic call (Test System: AMES SALMONELLA TYPHIMURIUM, Strain/Indicator: G46, Metabolic Activation: NONE, Method: STANDARD PLATE): inactive; negative; mutagenic call (Test System: AMES SALMONELLA TYPHIMURIUM, Strain/Indicator: G46, Metabolic Activation: RAT, LIVER, S-9, PHENOBARBITAL, Method: STANDARD PLATE): inactive; negative; mutagenic call (Test System: AMES SALMONELLA TYPHIMURIUM, Strain/Indicator: TA98(NR), Metabolic Activation: NONE, Method: STANDARD PLATE): inactive; negative; mutagenic call (Test System: AMES SALMONELLA TYPHIMURIUM, Strain/Indicator: TA98, Metabolic Activation: NONE): inactive; negative; mutagenic call (Test System: AMES SALMONELLA TYPHIMURIUM, Strain/Indicator: TA98, Metabolic Activation: NONE, Method: STANDARD PLATE): inactive; negative; mutagenic call (Test System: AMES SALMONELLA TYPHIMURIUM, Strain/Indicator: TA98, Metabolic Activation: RAT, LIVER, S-9, AROCLOR 1254, Method: STANDARD PLATE): active; positive; mutagenic call (Test System: AMES SALMONELLA TYPHIMURIUM, Strain/Indicator: TA98, Metabolic Activation: RAT, LIVER, S-9, CLOPHEN A50): inactive; negative; mutagenic call (Test System: AMES SALMONELLA TYPHIMURIUM, Strain/Indicator: TA98, Metabolic Activation: RAT, LIVER, S-9, PHENOBARBITAL, Method: STANDARD PLATE): active; positive; mutagenic call (Test System: AMES SALMONELLA TYPHIMURIUM, Strain/Indicator: TA100(NR), Metabolic Activation: NONE, Method: STANDARD PLATE): inactive; negative; mutagenic call (Test System: AMES SALMONELLA TYPHIMURIUM, Strain/Indicator: TA100(NR), Metabolic Activation: S-9, Method: STANDARD PLATE): inactive; negative; mutagenic call (Test System: AMES SALMONELLA TYPHIMURIUM, Strain/Indicator: TA100, Metabolic Activation: NONE): active; positive; mutagenic call (Test System: AMES SALMONELLA TYPHIMURIUM, Strain/Indicator: TA100, Metabolic Activation: NONE, Method: STANDARD PLATE): inactive; negative; mutagenic call (Test System: AMES SALMONELLA TYPHIMURIUM, Strain/Indicator: TA100, Metabolic Activation: RAT, LIVER, S-9, AROCLOR 1254, Method: STANDARD PLATE): active; positive; mutagenic call (Test System: AMES SALMONELLA TYPHIMURIUM, Strain/Indicator: TA100, Metabolic Activation: RAT, LIVER, S-9, CLOPHEN A50): active; positive; mutagenic call (Test System: AMES SALMONELLA TYPHIMURIUM, Strain/Indicator: TA100, Metabolic Activation: RAT, LIVER, S-9, PHENOBARBITAL, Method: STANDARD PLATE): active; positive; mutagenic call (Test System: AMES SALMONELLA TYPHIMURIUM, Strain/Indicator: TA100, Metabolic Activation: S-9, Method: STANDARD PLATE): active; positive; mutagenic call (Test System: AMES SALMONELLA TYPHIMURIUM, Strain/Indicator: TA102, Metabolic Activation: NONE, Method: STANDARD PLATE): active; positive; mutagenic call (Test System: AMES SALMONELLA TYPHIMURIUM, Strain/Indicator: TA1535, Metabolic Activation: NONE): inactive; negative; mutagenic call (Test System: AMES SALMONELLA TYPHIMURIUM, Strain/Indicator: TA1535, Metabolic Activation: NONE, Method: STANDARD PLATE): active; positive; mutagenic call (Test System: AMES SALMONELLA TYPHIMURIUM, Strain/Indicator: TA1535, Metabolic Activation: RAT, LIVER, S-9, CLOPHEN A50): inactive; negative; mutagenic call (Test System: AMES SALMONELLA TYPHIMURIUM, Strain/Indicator: TA1535, Metabolic Activation: RAT, LIVER, S-9, PHENOBARBITAL, Method: STANDARD PLATE): active; positive; mutagenic call (Test System: AMES SALMONELLA TYPHIMURIUM, Strain/Indicator: TA1537, Metabolic Activation: NONE): active; positive; mutagenic call (Test System: AMES SALMONELLA TYPHIMURIUM, Strain/Indicator: TA1537, Metabolic Activation: NONE, Method: STANDARD PLATE): active; positive; mutagenic call (Test System: AMES SALMONELLA TYPHIMURIUM, Strain/Indicator: TA1537, Metabolic Activation: RAT, LIVER, S-9, CLOPHEN A50): active; positive; mutagenic call (Test System: AMES SALMONELLA TYPHIMURIUM, Strain/Indicator: TA1537, Metabolic Activation: S-9, Method: STANDARD PLATE): active; positive; mutagenic call (Test System: AMES SALMONELLA TYPHIMURIUM, Strain/Indicator: TA1538, Metabolic Activation: NONE): inactive; negative; mutagenic call (Test System: AMES SALMONELLA TYPHIMURIUM, Strain/Indicator: TA1538, Metabolic Activation: RAT, LIVER, S-9, CLOPHEN A50): inactive; negative; mutagenic call (Test System: AMES SALMONELLA TYPHIMURIUM, Strain/Indicator: TA1978, Metabolic Activation: NONE, Method: STANDARD PLATE): inactive; negative; mutagenic call (Test System: AMES SALMONELLA TYPHIMURIUM, Strain/Indicator: TA1978, Metabolic Activation: RAT, LIVER, S-9, PHENOBARBITAL, Method: STANDARD PLATE): inactive; negative; mutagenic call (Test System: AMES SALMONELLA TYPHIMURIUM, Strain/Indicator: TM677/8-AZAGUANINE, Metabolic Activation: NONE, Method: SUSPENSION/PLATE): active; positive; mutagenic call (Test System: AMES SALMONELLA TYPHIMURIUM, Strain/Indicator: YG1020, Metabolic Activation: NONE, Method: STANDARD PLATE): active; positive; mutagenic call (Test System: AMES SALMONELLA TYPHIMURIUM, Strain/Indicator: YG1021, Metabolic Activation: NONE, Method: STANDARD PLATE): inactive; negative; mutagenic call (Test System: AMES SALMONELLA TYPHIMURIUM, Strain/Indicator: YG1024, Metabolic Activation: NONE, Method: STANDARD PLATE): active; positive; mutagenic call (Test System: AMES SALMONELLA TYPHIMURIUM, Strain/Indicator: YG1025, Metabolic Activation: NONE, Method: STANDARD PLATE): active; positive; mutagenic call (Test System: AMES SALMONELLA TYPHIMURIUM, Strain/Indicator: YG1029, Metabolic Activation: NONE, Method: STANDARD PLATE): active; positive; mutagenic call (Test System: CHINESE HAMSTER OVARY, Strain/Indicator: CHO-K1-BH4 (HGPRT), Metabolic Activation: NONE): active; positive; mutagenic call (Test System: MOUSE LYMPHOMA, Strain/Indicator: L5178Y TK+/TK-, Metabolic Activation: NONE): active; positive; mutagenic call (Test System: MOUSE LYMPHOMA, Strain/Indicator: L5178Y TK+/TK-, Metabolic Activation: RAT, LIVER, S-9, AROCLOR 1254): active; positive
